Source: US5200409A, “Composition and use of substituted 1,3-dithiolo-and 1,4-dithiinoquinoxalines as an antimicrobial” (The Dow Chemical Company, priority 1992, dated 1993)
≈ marks a conversion by molar mass, not a printed value. Like-named read-outs stand apart in the source and are kept apart here.

Columns and labels:
Bacillus subtilis (Bs) = assay: Minimum inhibitory concentration (MIC) in nutrient agar; format: cell-based, Bacillus subtilis ATCC 8473
How it was run: (§1)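 Nutrient agar, pH 6.8 and 8.2; compound incorporated at 48° C, final 1.0–500 ppm; plates dried 24 h; Steer's replicator inoculum 10^8 CFU/ml from 24 h broth cultures (30° C, shaken); incubation 30° C, 48 h; endpoint = prevention of growth.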

[1] = tested on: Enterobacter aerogenes (Ea); assay: as above; format: cell-based, Enterobacter aerogenes ATCC 13048; details: Klebsiella aerogenes
How it was run: as §1

[2] = tested on: Pseudomonas aeruginosa (PRD-10); assay: as above; format: cell-based, Pseudomonas aeruginosa ATCC 15442
How it was run: as §1

[3] = tested on: Staphylococcus aureus (Sa); assay: as above; format: cell-based, Staphylococcus aureus ATCC 6538
How it was run: as §1

[4] = tested on: Aureobasidium pullulan (Ap); assay: Minimum inhibitory concentration (MIC) in malt yeast agar; format: cell-based, Aureobasidium pullulan ATCC 16622; details: read-out: Minimum Inhibitory Concentration, Ap
How it was run: (§2)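 Compound dispersed in malt yeast agar at final 500, 250, 100, 50, 25, 10, 5, 2.5, 1.0 and 0 ppm (from 1% acetone/water solution); plates dried 24 h, then inoculated with saline/octylphenoxy polyethoxy ethanol suspensions of 7-day cultures diluted 1:9. Incubated at 30° C; read at 48 h for yeast, 72 h for fungi.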

marine organisms = assay: Marine antifouling rating of coated test panels exposed to the marine environment; details: scale 10 (completely free of growth) to 0 (completely covered); for Marine Antifouling Rating, 3 Week Test, Top Panel / Marine Antifouling Rating, 3 Week Test, Bottom Panel: 3 weeks; for Marine Antifouling Rating, 3 Week Test, Top Panel / Marine Antifouling Rating, 6 Week Test, Top Panel: topside, white background; for Marine Antifouling Rating, 3 Week Test, Bottom Panel / Marine Antifouling Rating, 6 Week Test, Bottom Panel: underside, black background; for Marine Antifouling Rating, 6 Week Test, Top Panel / Marine Antifouling Rating, 6 Week Test, Bottom Panel: 6 weeks
Protocol: Test panels are prepared from clear, rigid polyvinyl chloride film that is 0.381×10^-3 m thick and has one textured surface. The test panels are 0.1524 m by 0.1524 m squares that have 0.00635 m holes punched at corners on 0.127 m centers. A 0.102 square template, with a 0.067 m diameter hole at the center, is attached to the center of the textured surface of the test panels.
A candidate marine antifoulant compound (1.0 g) is stirred into a resinous latex binder (9.0 g). A portion of the compound/binder mixture (1.5 g) is added to the center of the test panel and uniformly spread over the circular area inside the template.
Water is added dropwise as needed to properly spread the compound/binder mixture. The template prevents the compound/binder mixture from spreading beyond the uncovered area. The test panel is allowed to sit for between ten to thirty minutes until the edge of the spread compound/binder mixture has dried. The template is then removed. The test panel is then allowed to dry for 8 to 12 hours at room temperature.
Two test panels are prepared for each candidate marine antifoulant compound. Two control test panels are also prepared by only treating with the resinous latex binder. One test panel of each candidate marine […] compound is attached over a white background to the topside of an exposure support apparatus. The second test panel is attached over a black background to the underside of the exposure support apparatus. The exposure support apparatus is placed horizontally 0.0254 m under a marine surface with the white background topside facing up. The exposure support apparatus is exposed to the marine environment for both 3 and 6 weeks during which time the control test panels become substantially covered with mature marine organism growth on both the topside and underside exposures.
After being removed from the exposure support apparatus, each test panel is inspected and rated for marine organism growth on both the treated and untreated areas of the test panel. The marine organisms present on the treated and untreated areas are noted. The presence of algea spores and bacterial slime are noted but not included in rating each test panel. The test panels are rated on a scale from 10 (representing completely free of marine organism growth) to 0 (representing completely covered with marine organism growth).

Aspergillus niger (An) = assay: Minimum inhibitory concentration (MIC) in malt yeast agar; format: cell-based, Aspergillus niger ATCC 16404; details: read-out: Minimum Inhibitory Concentration, An
How it was run: as §2

[5] = tested on: Penicillium chrysogenum (Pc); assay: as above; format: cell-based, Penicillium chrysogenum ATCC 9480; details: read-out: Minimum Inhibitory Concentration, Pc
How it was run: as §2

[6] = pH 6.8, nutrient agar, 30° C., 48 hours, read-out: Minimum Inhibitory Concentration, Bs
[7] = 48 h, pH 8.2, read-out: Minimum Inhibitory Concentration, Ea
[8] = 48 h, pH 8.2, read-out: Minimum Inhibitory Concentration, PRD
[9] = 48 h, pH 6.8, read-out: Minimum Inhibitory Concentration, Sa
[10] = pH 8.2, nutrient agar, 30° C., 48 hours, read-out: Minimum Inhibitory Concentration, Sa
[11] = 48 h, pH 6.8, read-out: Minimum Inhibitory Concentration, Bs
[12] = 48 h, pH 8.2, read-out: Minimum Inhibitory Concentration, Bs
[13] = 48 h, pH 6.8, read-out: Minimum Inhibitory Concentration, Ea
[14] = 48 h, pH 6.8, read-out: Minimum Inhibitory Concentration, PRD
[15] = 48 h, pH 8.2, read-out: Minimum Inhibitory Concentration, Sa
[16] = malt yeast agar, 30° C., 72 hours for fungi
[17] = malt yeast agar, 30° C., 48 hours for yeast and 72 hours for fungi
[18] = pH 6.8, nutrient agar, 30° C., 48 hours, read-out: Minimum Inhibitory Concentration, Sa

N#CC1=C(C#N)Sc2nc3cc([N+](=O)[O-])ccc3nc2S1 [A, 7-nitro-1,4-dithiino-(2,3-b)-quinoxaline-2,3-dicarbonitrile]
MIC (Bacillus subtilis (Bs); [6]): < 10 µg/mL
MIC (Bacillus subtilis (Bs); pH 8.2, nutrient agar, 30° C., 48 hours, read-out: Minimum Inhibitory Concentration, Bs): 100 µg/mL (≈ 319 µM)
MIC [1, 7]: > 500 µg/mL
MIC ([1]; pH 6.8, nutrient agar, 30° C., 48 hours, read-out: Minimum Inhibitory Concentration, Ea): 100 µg/mL (≈ 319 µM)
MIC [2, 8]: > 500 µg/mL
MIC ([2]; pH 6.8, nutrient agar, 30° C., 48 hours, read-out: Minimum Inhibitory Concentration, PRD): 250 µg/mL (≈ 798 µM)
MIC [3, 9]: < 10 µg/mL
MIC [3, 10]: 100 µg/mL (≈ 319 µM)
MIC [4]: 2.5 µg/mL (≈ 7.98 µM)
Marine Antifouling Rating, 3 Week Test, Top Panel (marine organisms): 9
Marine Antifouling Rating, 3 Week Test, Bottom Panel (marine organisms): 9
Marine Antifouling Rating, 6 Week Test, Top Panel (marine organisms): 8
Marine Antifouling Rating, 6 Week Test, Bottom Panel (marine organisms): 3

N#CC1=C(C#N)Sc2nc3cc([N+](=O)[O-])c([N+](=O)[O-])cc3nc2S1 [B, 7,8-Dinitro-1,4-dithiino-(2,3-b)quinoxaline-2,3-dicarbonitrile]
MIC (Bacillus subtilis (Bs); [11]): 500 µg/mL (≈ 1400 µM)
MIC (Bacillus subtilis (Bs); [12]): 25 µg/mL (≈ 69.8 µM)
MIC [1, 13]: > 500 µg/mL
MIC [1, 7]: > 500 µg/mL
MIC [2, 14]: > 500 µg/mL
MIC [2, 8]: > 500 µg/mL
MIC [3, 9]: < 10 µg/mL
MIC [3, 15]: < 10 µg/mL
MIC (Aspergillus niger (An); 72 h): 25 µg/mL (≈ 69.8 µM)
MIC ([5]; 72 h): 10 µg/mL (≈ 27.9 µM)
MIC [4]: 5 µg/mL (≈ 14 µM)
Marine Antifouling Rating, 3 Week Test, Top Panel (marine organisms): 6
Marine Antifouling Rating, 3 Week Test, Bottom Panel (marine organisms): 3
Marine Antifouling Rating, 6 Week Test, Top Panel (marine organisms): 3
Marine Antifouling Rating, 6 Week Test, Bottom Panel (marine organisms): 0

N#CC1=C(C#N)Sc2nc3cc(Cl)ccc3nc2S1 [C, 7-chloro-1,4-dithiino-(2,3-b)-quinoxaline-2,3-dicarbonitrile]
MIC (Bacillus subtilis (Bs); [12]): 25 µg/mL (≈ 82.6 µM)
MIC (Bacillus subtilis (Bs); [6]): 25 µg/mL (≈ 82.6 µM)
MIC [1, 13]: > 500 µg/mL
MIC [1, 7]: > 500 µg/mL
MIC [2, 14]: > 500 µg/mL
MIC [2, 8]: > 500 µg/mL
MIC [3, 9]: 50 µg/mL (≈ 165 µM)
MIC [3, 10]: 50 µg/mL (≈ 165 µM)
MIC (Aspergillus niger (An); [16]): 25 µg/mL (≈ 82.6 µM)
MIC [5, 16]: < 10 µg/mL
MIC [4, 17]: < 10 µg/mL
Marine Antifouling Rating, 3 Week Test, Top Panel (marine organisms): 0
Marine Antifouling Rating, 3 Week Test, Bottom Panel (marine organisms): 9
Marine Antifouling Rating, 6 Week Test, Top Panel (marine organisms): 5
Marine Antifouling Rating, 6 Week Test, Bottom Panel (marine organisms): 0

Cc1ccc2nc3c(nc2c1)SC(C#N)=C(C#N)S3 [D, 7-Methyl-1,4-dithiino-(2,3-b)quinoxaline-2,3-dicarbonitrile]
MIC (Bacillus subtilis (Bs); [12]): 250 µg/mL (≈ 885 µM)
MIC (Bacillus subtilis (Bs); [6]): 25 µg/mL (≈ 88.5 µM)
MIC [1, 13]: > 500 µg/mL
MIC [1, 7]: > 500 µg/mL
MIC [2, 14]: > 500 µg/mL
MIC [2, 8]: > 500 µg/mL
MIC [3, 15]: 500 µg/mL (≈ 1770 µM)
MIC [3, 18]: 100 µg/mL (≈ 354 µM)
MIC (Aspergillus niger (An); 72 h): 50 µg/mL (≈ 177 µM)
MIC ([5]; 72 h): 50 µg/mL (≈ 177 µM)
MIC [4, 17]: 25 µg/mL (≈ 88.5 µM)
Marine Antifouling Rating, 3 Week Test, Top Panel (marine organisms): 4
Marine Antifouling Rating, 3 Week Test, Bottom Panel (marine organisms): 3
Marine Antifouling Rating, 6 Week Test, Top Panel (marine organisms): 3
Marine Antifouling Rating, 6 Week Test, Bottom Panel (marine organisms): 0

N#CC1=C(C#N)Sc2nc3ccccc3nc2S1 [E, 1,4-dithiino-(2,3-b)-quinoxaline-2,3-dicarbonitrile]
MIC (Bacillus subtilis (Bs); [12]): > 500 µg/mL
MIC (Bacillus subtilis (Bs); [6]): 50 µg/mL (≈ 186 µM)
MIC [1, 13]: > 500 µg/mL
MIC [1, 7]: > 500 µg/mL
MIC [2, 14]: > 500 µg/mL
MIC [2, 8]: > 500 µg/mL
MIC [3, 15]: < 10 µg/mL
MIC [3, 18]: 25 µg/mL (≈ 93.2 µM)
MIC (Aspergillus niger (An); [16]): < 10 µg/mL
MIC [5, 16]: < 10 µg/mL
MIC [4, 17]: < 10 µg/mL
Marine Antifouling Rating, 3 Week Test, Top Panel (marine organisms): 8
Marine Antifouling Rating, 3 Week Test, Bottom Panel (marine organisms): 4
Marine Antifouling Rating, 6 Week Test, Top Panel (marine organisms): 9
Marine Antifouling Rating, 6 Week Test, Bottom Panel (marine organisms): 0

N#CC(C#N)=C1Sc2nc3ccc([N+](=O)[O-])cc3nc2S1 [L, 6-nitro-1,3-dithiolo-(4,5-b)-quinoxaline-2-ylidene-propanedinitrile]
MIC (Bacillus subtilis (Bs); [11]): 100 µg/mL (≈ 319 µM)
MIC (Bacillus subtilis (Bs); [12]): > 500 µg/mL
MIC [1, 13]: > 500 µg/mL
MIC [1, 7]: > 500 µg/mL
MIC [2, 14]: > 500 µg/mL
MIC [2, 8]: > 500 µg/mL
MIC [3, 15]: > 500 µg/mL
MIC [3, 18]: 100 µg/mL (≈ 319 µM)
MIC (Aspergillus niger (An); 72 h): 2.5 µg/mL (≈ 7.98 µM)
MIC ([5]; 72 h): 2.5 µg/mL (≈ 7.98 µM)
MIC [4]: 5 µg/mL (≈ 16 µM)
Marine Antifouling Rating, 3 Week Test, Top Panel (marine organisms): 7
Marine Antifouling Rating, 3 Week Test, Bottom Panel (marine organisms): 7
Marine Antifouling Rating, 6 Week Test, Top Panel (marine organisms): 9
Marine Antifouling Rating, 6 Week Test, Bottom Panel (marine organisms): 0

N#CC(C#N)=C1Sc2nc3cc([N+](=O)[O-])c([N+](=O)[O-])cc3nc2S1 [M, 6,7-dinitro-1,3-dithiolo-(4,5-b)-quinoxaline-2-ylidene-propanedinitrile]
MIC (Bacillus subtilis (Bs); [11]): 100 µg/mL (≈ 279 µM)
MIC (Bacillus subtilis (Bs); [12]): 250 µg/mL (≈ 698 µM)
MIC [1, 13]: > 500 µg/mL
MIC [1, 7]: > 500 µg/mL
MIC [2, 14]: > 500 µg/mL
MIC [2, 8]: > 500 µg/mL
MIC [3, 9]: < 10 µg/mL
MIC [3, 15]: 100 µg/mL (≈ 279 µM)
MIC (Aspergillus niger (An); 72 h): 2.5 µg/mL (≈ 6.98 µM)
MIC ([5]; 72 h): 2.5 µg/mL (≈ 6.98 µM)
MIC [4]: 2.5 µg/mL (≈ 6.98 µM)
Marine Antifouling Rating, 3 Week Test, Top Panel (marine organisms): 9
Marine Antifouling Rating, 3 Week Test, Bottom Panel (marine organisms): 9
Marine Antifouling Rating, 6 Week Test, Top Panel (marine organisms): 5
Marine Antifouling Rating, 6 Week Test, Bottom Panel (marine organisms): 1

N#CC(C#N)=C1Sc2nc3ccc(Cl)cc3nc2S1 [O, 6-chloro-1,3-dithiolo-(4,5-b)-quinoxaline-2-ylidene-propanedinitrile]
MIC (Bacillus subtilis (Bs); [11]): > 500 µg/mL
MIC (Bacillus subtilis (Bs); [12]): > 500 µg/mL
MIC [1, 13]: > 500 µg/mL
MIC [1, 7]: > 500 µg/mL
MIC [2, 14]: > 500 µg/mL
MIC [2, 8]: > 500 µg/mL
MIC [3, 15]: > 500 µg/mL
MIC [3, 18]: > 500 µg/mL
MIC (Aspergillus niger (An); [16]): 500 µg/mL (≈ 1650 µM)
MIC [5, 16]: 500 µg/mL (≈ 1650 µM)
MIC [4, 17]: 500 µg/mL (≈ 1650 µM)
Marine Antifouling Rating, 3 Week Test, Top Panel (marine organisms): 0
Marine Antifouling Rating, 3 Week Test, Bottom Panel (marine organisms): 2
Marine Antifouling Rating, 6 Week Test, Top Panel (marine organisms): 6
Marine Antifouling Rating, 6 Week Test, Bottom Panel (marine organisms): 0
